From US20230322815A1, “NOVEL COMPOUNDS AND THERAPEUTIC USES THEREOF” (University of Huddersfield, priority 2020, published 2023)

Experiments:
ARPE19 non-cancer cells = assay: Immunoblot of cellular proteins after treatment; type: cell-based, human; settings: 5 μM, 40 h
Experimental: (§1) FIG. 12. Immunoblots showing the differential effects of [L2Cu3]^6+ and [L2Zn3]^6+ treatment of HCT116 cancer cells and ARPE19 non-cancer cells on key cellular proteins associated with cellular and metabolic stress. Representative immunoblot images of the indicated proteins following cell exposure to 5 μM [L2Cu3]^6+ or [L2Zn3]^6+ for 40 h. Tyrosine phosphorylated proteins are indicated using a pan-phospho-Tyr antibody; β-actin as a loading control.
(§2) Protein lysates and recombinant proteins were resolved on 15% SDS polyacrylamide gels. Proteins were electroblotted onto nitrocellulose membrane by wet transfer in 1×Tris Glycine buffer (Biorad) at 35 mA overnight at room temperature (Allison et al., 2014). After blocking of membranes, these were incubated with primary antibody overnight at 4° C. before addition of rabbit or mouse secondary antibody (HRP-conjugated) for 1 h at room temperature and development of blots by enhanced chemiluminescence. Primary antibodies were: anti-Src (total) (Cell Signalling Technology #2123 1:1000), anti-phosphorylated Src (Y527) (Cell Signalling Technology #21055 1:1000), anti-phosphorylated Src (Y416) (Cell Signalling Technology #69435 1:1000), anti-AMPKα (total) (Cell Signalling Technology #2532 1:1000), anti-phosphorylated AMPKα (T172) (Cell Signalling Technology […] 1:1000), anti-phospho-Tyr (pan) (Cell Signalling Technology #8954 1:2000), anti-p53 (Santa Cruz, DO-1 clone, 1:1000), anti-β-actin (Merck MAB1501, 1:40,000). Quantification of signals was performed by densitometry using Image J software.

HCT116 cancer cells = assay: Immunoblot of cellular proteins after treatment; type: cell-based, human; settings: 5 μM, 40 h
Experimental: as §1, §2

AMPK = assay: Cell-free kinase screen; type: biochemical, human; settings: 10 μM complex
Experimental: FIG. 9. Effects of [L2Zn3]^6+ and [L2Cu3]^6+ on the activity of purified human kinases. a,b, Percentage inhibition of the indicated kinases by [L2Zn3]^6+ (a) and [L2Cu3]^6+ (b) respectively at a concentration of 10 μM; full results are presented in the ESI. c,d, Kinases whose activity is stimulated by [L2Zn3]^6+ (c) or [L2Cu3]^6+ (d) complexes. e,f, Kinome map showing kinases inhibited (red) or stimulated (green) by [L2Zn3]^6+ (e) or [L2Cu3]^6+ (f). III ustration reproduced courtesy of Cell Signalling Technology Inc (www.cellsignal.com)
FIG. 16. The effect of [L2Zn3]^6+ and [L2Cu3]^6+ on the activity of recombinant human kinases. The compounds were submitted to the MRC Protein Phosphorylation and Ubiquitination Unit International Centre for Kinase Profiling (University of Dundee) and tested at a concentration of 10 μM against 140 human kinases (Premier Screen).
Given the ability of the Zn^2+ complex to dephosphorylate amino acids serine, tyrosine and threonine (FIG. 6) and the Cu^2+ complex to bind phenyl phosphate (FIG. 3), it was examined whether the complexes affect the activity of kinases. This was assessed in a cell-free screen of 140 kinases using purified recombinant human kinases and substrate peptides incubated in the presence of ^33P ATP and 10 μM complex or solvent control. […]

Question: For `[Zn+2].[Zn+2].[Zn+2].c1ccc(-c2csc(NCCN(CCNc3nc(-c4ccccn4)cs3)CCNc3nc(-c4ccccn4)cs3)n2)nc1.c1ccc(-c2csc(NCCN(CCNc3nc(-c4ccccn4)cs3)CCNc3nc(-c4ccccn4)cs3)n2)nc1` [[L2Zn3]^6+], which p53 levels (ARPE19 non-cancer cells) is on record?
Answer: decreased

Question: And the “cellular p-T172 AMPKα relative to total AMPKα levels” value (HCT116 cancer cells)?
Answer: increased

Question: And the “increase in p53 levels” value (HCT116 cancer cells)?
Answer: ~2.7 fold

Question: What about the “decrease in total levels of Tyr-phosphorylated proteins” value (HCT116 cancer cells; pan phospho-tyrosine antibody) of the same compound?
Answer: ~10%

Question: What about the “effect on AMPK activity in the kinase screen” value (AMPK) of the same compound?
Answer: inhibition of AMPK

Question: Which p53 levels (ARPE19 non-cancer cells) does the source give for `[Cu+2].[Cu+2].[Cu+2].c1ccc(-c2csc(NCCN(CCNc3nc(-c4ccccn4)cs3)CCNc3nc(-c4ccccn4)cs3)n2)nc1.c1ccc(-c2csc(NCCN(CCNc3nc(-c4ccccn4)cs3)CCNc3nc(-c4ccccn4)cs3)n2)nc1` [[L2Cu3]^6+] here?
Answer: decreased

Question: And the “increase in p53 levels” value (HCT116 cancer cells)?
Answer: ~1.7 fold

Question: What about the “effect on AMPK activity in the kinase screen” value (AMPK) of the same compound?
Answer: inhibition of AMPK
